What was measured:
PYL2 = molecular target: T1, PYL2 (Arabidopsis thaliana, UniProt O80992); assay: crystal structure of PYL2-ABA; format: biochemical
T1 sequence (O80992 14-188): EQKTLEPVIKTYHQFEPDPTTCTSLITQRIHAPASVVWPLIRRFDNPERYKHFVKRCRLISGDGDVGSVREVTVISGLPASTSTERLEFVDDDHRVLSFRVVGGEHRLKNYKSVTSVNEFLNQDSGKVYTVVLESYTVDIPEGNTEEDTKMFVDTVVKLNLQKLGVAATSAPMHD
T1 sequence (Q9CAJ0 172-511 partner): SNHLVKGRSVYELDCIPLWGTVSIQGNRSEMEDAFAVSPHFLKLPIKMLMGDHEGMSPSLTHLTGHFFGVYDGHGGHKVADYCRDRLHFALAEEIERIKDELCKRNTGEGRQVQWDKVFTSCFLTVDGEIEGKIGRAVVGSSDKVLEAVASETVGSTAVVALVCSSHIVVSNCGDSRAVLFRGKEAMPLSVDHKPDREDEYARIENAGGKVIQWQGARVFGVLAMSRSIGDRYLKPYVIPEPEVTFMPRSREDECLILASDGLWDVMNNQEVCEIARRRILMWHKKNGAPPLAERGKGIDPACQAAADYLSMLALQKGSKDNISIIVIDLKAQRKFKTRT

PYR1(H115A) = molecular target: T2, PYR1(H115A) (Arabidopsis thaliana, UniProt O49686, H115A); assay: 1H-15N HSQC NMR with and without S-ABA; format: binding
T2 sequence (O49686 1-191 H115A): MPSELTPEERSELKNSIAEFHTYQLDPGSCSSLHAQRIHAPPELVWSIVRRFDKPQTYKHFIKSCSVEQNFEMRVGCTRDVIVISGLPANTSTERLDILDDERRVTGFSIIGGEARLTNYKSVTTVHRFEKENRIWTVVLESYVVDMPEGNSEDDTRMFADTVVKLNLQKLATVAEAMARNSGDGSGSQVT

SMILES: CC1=CC(=O)CC(C)(C)C1(O)/C=C/C(C)=C\C(=O)O (centres unmarked) [S-ABA]
- IC50 (PYL2): 150 nM
- 1H-15N HSQC NMR with and without S-ABA (PYR1(H115A)): ABA binding is unaltered by the H115A mutation in the PYR1 latch.

From article PMC2810868 (Nature, 2009)
